Results taken from patent US20250186425A1, “PPARG INVERSE AGONISTS AND USES THEREOF” (Flare Therapeutics Inc., priority 2022, published 2025).

How the values were obtained:
[1] = biological target: T1, PPARG/RXRA LBD heterodimer (Homo sapiens (Human), UniProt P37231); assay: PPARG-NCOR1 recruitment assay (TR-FRET); type: biochemical; conditions: for EC50: TR-FRET, biotinylated NCOR1 ID2 peptide, 80 nM Rosiglitazone, 3 hours, read-out: PPARG-NCOR recruitment assay EC50; for % NCOR recruitment relative to T907: maximal extent, T0070907 defined as 100%, DMSO 0%
Protocol: Compound potency (EC50) and maximal extent of NCOR1 recruitment to PPARG were assessed a TR-FRET binding assay measuring association of a biotinylated NCOR1 ID2 peptide (Biotin-[…]-amide) to PPARG/RXRA LBD heterodimer. Specifically, a 20 microliters of TR-FRET master mix consisting of 2 nM WT PPARG LBD (e. coli expressed, His-TEV-Q203-Y477; Uniprot ID P37231-2), 2 nM WT RXRA LBD or mutant S427F RXRA LBD (e. coli expressed, Flag-TEV-E228-T462; […]. Mixtures were incubated for 3 hours and read in an EnVision plate reader (Perkin Elmer) with Ex/Em 615/665. To determine the potency (EC50) and extent of NCOR1 recruitment, TR-FRET ratios were normalized to the average ratio of DMSO control wells (0%) and to the average maximum ratio for positive control compound (T0070907 (2-chloro-5-nitro-N-4-pyridinyl-benzamide); defined as 100%) in CDD Vault and analyzed using the Levenberg-Marquardt algorithm.

[2] = biological target: T1, PPARG/RXRA LBD heterodimer; assay: PPARG-MED1 blockade assay (TR-FRET); type: biochemical; conditions: for EC50: TR-FRET, biotinylated MED1 LxxLL peptide, 80 nM Rosiglitazone, 3 hours, IC50; for % MED1 blockade relative to GW9662: maximal extent, GW9662 defined as 100%, DMSO 0%
Protocol: Compound potency (IC50) and maximal extent of MED1 repulsion to PPARG were assessed a TR-FRET binding assay measuring association of a biotinylated MED1 LxxLL peptide (Biotin-[…]-amide) to PPARG/RXRA LBD heterodimer. Specifically, a 20 microliters of TR-FRET master mix consisting of 2 nM WT PPARG LBD (e. coli expressed, His-TEV-Q203-Y477; Uniprot ID P37231-2), 2 nM WT RXRA LBD (e. coli expressed, Flag-TEV-E228-T462; […]. Mixtures were incubated for 3 hours and read in an EnVision plate reader (Perkin Elmer) with Ex/Em 615/665. To determine the potency (IC50) and extent of MED1 repulsion, TR-FRET ratios were normalized to the average ratio of DMSO control wells (0%) and to the average minimum ratio for positive control compound (GW9662 (2-chloro-5-nitrobenzanilide); defined as 100%) in CDD Vault and analyzed using the Levenberg-Marquardt algorithm.

[3] = test system: HT1197 (RXRA S427F mutation) cells; assay: Bladder cancer pharmacodynamic assay, HT1197 cell assay (qPCR of PPARG target gene ANGPTL4); type: cell-based; conditions: Homo sapiens; for inhibition at 0.1 µM: 100 nM compound, 24 hours, relative to DMSO control; for EC50: 24 hours treatment, qPCR
Protocol: 5637 (PPARG amplified) and HT1197 (RXRA S427F mutation) cells were used for assessment of modulation of PPARG target genes using quantitative PCR. Cells were treated for 24 hours with PPARG inverse agonists prior to analysis of FABP4 (IDT, Cat: Hs.PT 58.20106818) and ANGPTL4 (IDT, Cat: Hs.PT 58.25480012) expression, with expression of the housekeeping gene TBP (IDT, Cat: Hs.PT 58v.39858774) used to normalize expression across samples. Quantitative PCR was performed using an ABI QuantStudio 7 Flex Reaction system. Data were analyzed and reported relative to DMSO control using the comparative Ct method […].

T1 sequence (P37231 whole entry, looked up, the tested form may be a part): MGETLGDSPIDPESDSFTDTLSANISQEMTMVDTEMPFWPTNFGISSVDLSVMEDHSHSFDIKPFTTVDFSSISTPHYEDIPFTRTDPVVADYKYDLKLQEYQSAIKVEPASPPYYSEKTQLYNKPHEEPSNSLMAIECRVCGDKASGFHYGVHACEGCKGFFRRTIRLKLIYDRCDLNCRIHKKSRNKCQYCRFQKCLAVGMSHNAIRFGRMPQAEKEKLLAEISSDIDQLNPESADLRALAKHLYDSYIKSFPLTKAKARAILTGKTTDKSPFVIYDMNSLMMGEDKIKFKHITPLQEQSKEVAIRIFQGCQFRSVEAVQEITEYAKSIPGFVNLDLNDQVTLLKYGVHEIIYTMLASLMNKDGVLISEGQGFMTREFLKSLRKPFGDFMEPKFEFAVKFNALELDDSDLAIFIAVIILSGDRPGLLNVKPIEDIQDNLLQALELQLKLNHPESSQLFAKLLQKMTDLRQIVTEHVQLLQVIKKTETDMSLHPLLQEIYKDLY
T1 sequence (P19793 whole entry partner, looked up, the tested form may be a part): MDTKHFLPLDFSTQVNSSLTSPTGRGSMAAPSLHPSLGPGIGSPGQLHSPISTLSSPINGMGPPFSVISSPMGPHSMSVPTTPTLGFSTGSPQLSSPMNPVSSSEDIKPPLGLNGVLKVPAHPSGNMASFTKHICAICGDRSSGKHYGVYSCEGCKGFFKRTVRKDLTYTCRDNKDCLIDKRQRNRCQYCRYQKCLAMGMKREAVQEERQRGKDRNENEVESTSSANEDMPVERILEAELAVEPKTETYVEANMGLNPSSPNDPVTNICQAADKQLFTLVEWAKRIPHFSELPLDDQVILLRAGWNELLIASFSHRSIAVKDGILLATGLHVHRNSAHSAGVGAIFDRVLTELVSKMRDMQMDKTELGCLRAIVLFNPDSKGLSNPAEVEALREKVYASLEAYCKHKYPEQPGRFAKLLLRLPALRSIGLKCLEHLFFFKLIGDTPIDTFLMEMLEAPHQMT

Structure (SMILES)	EC50 [1] [nM]	% NCOR recruitment relative to T907 [1]	EC50 [2] [nM]	% MED1 blockade relative to GW9662 [2]	inhibition at 0.1 µM [3] [%]	EC50 [3] [nM]
CS(=O)(=O)c1ccc(C#N)cc1-c1cc(=O)c2c(Oc3ccc(Cl)cc3)cc(F)cc2[nH]1 [Example 1, 3-(5-(4-Chlorophenoxy)-7-Fluoro-4-Oxo-1,4-Dihydroquinolin-2-Yl)-4-(Methylsulfonyl)Benzonitrile]	100 to 1000	A (A: >100% (>the control compound, T907))	100 to 1000	A (A: >100% (>the control compound, GW9662))	85	0.8
N#Cc1ccc(Cl)c(-c2cc(=O)c3c(Oc4ccc(Cl)cc4)cc(F)cc3[nH]2)c1 [Example 2, 4-Chloro-3-(5-(4-Chlorophenoxy)-7-Fluoro-4-Oxo-1,4-Dihydroquinolin-2-Yl)Benzonitrile]	100 to 1000	A (A: >100% (>the control compound, T907))	100 to 1000	B (B: <100% (<the control compound, GW9662))	91	–
Cn1cc(Oc2cc(F)cc3[nH]c(-c4cc(C#N)ccc4S(C)(=O)=O)cc(=O)c23)cn1 [Example 3, 3-(7-Fluoro-5-((1-Methyl-1H-Pyrazol-4-Yl)Oxy)-4-Oxo-1,4-Dihydroquinolin-2-Yl)-4-(Methylsulfonyl)Benzonitrile]	1000 to 10000	A (A: >100% (>the control compound, T907))	1000 to 10000	A (A: >100% (>the control compound, GW9662))	82	–
Cn1cc(Oc2cc(Cl)cc3[nH]c(-c4cc(C#N)ccc4S(C)(=O)=O)cc(=O)c23)cn1 [Example 4, 3-(7-Chloro-5-((1-Methyl-1H-Pyrazol-4-Yl)Oxy)-4-Oxo-1,4-Dihydroquinolin-2-Yl)-4-(Methylsulfonyl)Benzonitrile]	100 to 1000	A (A: >100% (>the control compound, T907))	100 to 1000	A (A: >100% (>the control compound, GW9662))	86	0.35
N#Cc1ccc(Cl)c(-c2cc(=O)c3c(Oc4ccc(Cl)nc4)cc(F)cc3[nH]2)c1 [Example 5, 4-Chloro-3-(5-((6-Chloropyridin-3-Yl)Oxy)-7-Fluoro-4-Oxo-1,4-Dihydroquinolin-2-Yl)Benzonitrile]	100 to 1000	A (A: >100% (>the control compound, T907))	100 to 1000	A (A: >100% (>the control compound, GW9662))	77	–
N#Cc1ccc(Cl)c(-c2cc(=O)c3c(OCc4ccc(Cl)cc4)cc(F)cc3[nH]2)c1 [Example 6, 4-Chloro-3-(5-((4-Chlorobenzyl)Oxy)-7-Fluoro-4-Oxo-1,4-Dihydroquinolin-2-Yl)Benzonitrile]	100 to 1000	A (A: >100% (>the control compound, T907))	100 to 1000	A (A: >100% (>the control compound, GW9662))	25	–
CS(=O)(=O)c1ccc(C#N)cc1-c1cc(=O)c2c(Cc3ccc(Cl)cc3)cc(F)cc2[nH]1 [Example 7, 3-(5-(4-Chlorobenzyl)-7-Fluoro-4-Oxo-1,4-Dihydroquinolin-2-Yl)-4-(Methylsulfonyl)Benzonitrile]	10 to 100	A (A: >100% (>the control compound, T907))	100 to 1000	A (A: >100% (>the control compound, GW9662))	90	–
